Results reported in patent publication US11000033B2, “Ketone or oxime compound, and herbicide” (NISSAN CHEMICAL CORPORATION, priority 2014, dated 2021).

Tests used:
Assay type in all cases: in vivo
Veronica persica [1] = experiment: Test Example 4: herbicidal effect by soil treatment (symbol R)
In short: (§1)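 Seeds were sown in sterilized diluvial soil, covered with about 1.5 cm of soil, and the soil surface was sprayed with a water-diluted emulsion of the compound at a predetermined rate. Plants grew in a greenhouse at 25° C. to 30° C.; effects were scored visually 3 weeks after application.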

Veronica persica [2] = experiment: Test Example 5: herbicidal effect by foliage application, plastic box (symbol R); details: 320 g/ha, 3 weeks after application
In short: (§2)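 Leaf-applied emulsion, water-diluted to a preset herbicide dose, on two-week-old seedlings raised in a 25° C. to 30° C. greenhouse; injury rated at 3 weeks using earlier criteria.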

transplanted rice plant = experiment: Test Example 1: effect on crop, application before weed generation in submerged conditions (symbol a); details: application herbicide amount 320 g/ha
In short: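 Rice at 2.5 leaf stage transplanted into submerged soil (4 cm depth) sown with three weed species; herbicide applied before weed emergence.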

Scirpus juncoides = experiment: Test Example 2: herbicidal activity, application during weed generation in submerged conditions (symbol B); details: Table 23; application herbicide amount 320 g/ha; grade 0-5 by criteria of Test Example 1
In short: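 Read-out: herbicidal effect on each species rated on a visual scale 3 weeks after treatment. Plants were raised together from seed in flooded alluvial soil (4 cm water) at 25° C. to 30° C. and treated at one to two leaves by water-surface application of diluted emulsion.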

wheat = experiment: Test Example 5: effect on crop by foliage application, plastic box (symbol e); details: 320 g/ha, 3 weeks after application
In short: (§3)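 Greenhouse culture at 25° C. to 30° C. followed spot-like sowing into sterilized diluvial soil, with seed covered by roughly 1.5 cm of soil.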

Alopecurus myosuroides [3] = experiment: Test Example 4: herbicidal effect by soil treatment (symbol J)
In short: as §1

rice = experiment: Test Example 4: effect on crop by soil treatment (symbol b); details: for b: directly sowed rice plant, effect grade on crop: 320 g/ha
In short: (§4)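 Crop seed is sown in spots together with several weed species in a box of sterilized diluvial soil. It is covered by about 1.5 cm of soil and kept in a greenhouse held between 25° C. and 30° C.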

Alopecurus myosuroides [4] = experiment: Test Example 5: herbicidal effect by foliage application, plastic box (symbol J); details: 320 g/ha, 3 weeks after application
In short: as §2

Lolium multiflorum Lam. = experiment: Test Example 5: herbicidal effect by foliage application, plastic box (symbol K); details: 320 g/ha, 3 weeks after application
In short: as §2

rapeseed = experiment: Test Example 4: effect on crop by soil treatment (symbol g); details: for g: rapeseed, effect grade on crop: 320 g/ha
In short: as §4

corn [5] = experiment: Test Example 4: effect on crop by soil treatment (symbol c); details: for c: corn, effect grade on crop: 320 g/ha
In short: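 Diluvial soil (sterilized) in boxes; seeds placed spot-wise alongside weed species; ~1.5 cm covering soil. Greenhouse, 25–30° C.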

corn [6] = experiment: Test Example 5: effect on crop by foliage application, plastic box (symbol c); details: 320 g/ha, 3 weeks after application
In short: as §3

beet = experiment: Test Example 5: effect on crop by foliage application, plastic box (symbol f); details: 320 g/ha, 3 weeks after application
In short: as §3

Galium spurium = experiment: Test Example 4: herbicidal effect by soil treatment (symbol Q)
In short: as §1

Digitaria ciliaris = experiment: Test Example 4: herbicidal effect by soil treatment (symbol F)
In short: as §1

[7] = application herbicide amount 320 g/ha

| SMILES | R: Veronica persica, herbicidal effect grade (Veronica persica [1]; [7]) | R: Veronica persica, herbicidal effect grade (Veronica persica [2]) | Effect grade on crop, a: transplanted rice plant (transplanted rice plant) | Herbicidal effect grade, B: Scirpus juncoides (Scirpus juncoides) | e: wheat, effect on crop grade (wheat) | J: Alopecurus myosuroides, herbicidal effect grade (Alopecurus myosuroides [3]; [7]) | b: directly sowed rice plant, effect on crop grade (rice; [7]) | J: Alopecurus myosuroides, herbicidal effect grade (Alopecurus myosuroides [4]) | K: Lolium multiflorum Lam., herbicidal effect grade (Lolium multiflorum Lam.) | g: rapeseed, effect on crop grade (rapeseed; [7]) | c: corn, effect on crop grade (corn [5]; [7]) | c: corn, effect on crop grade (corn [6]) | f: beet, effect on crop grade (beet) | Q: Galium spurium, herbicidal effect grade (Galium spurium; [7]) | F: Digitaria ciliaris, herbicidal effect grade (Digitaria ciliaris; [7]) | R: Veronica persica, herbicidal effect grade (Veronica persica [1]; 320 g/ha) | J: Alopecurus myosuroides, herbicidal effect grade (Alopecurus myosuroides [3]; 320 g/ha) | b: directly sowed rice plant, effect grade on crop (rice) | g: rapeseed, effect grade on crop (rapeseed) | c: corn, effect grade on crop (corn [5]) | also measured |
| --- | --- | --- | --- | --- | --- | --- | --- | --- | --- | --- | --- | --- | --- | --- | --- | --- | --- | --- | --- | --- | --- |
| CCOC(=O)C(C(=O)c1ccccn1)C1CC(O)=C(c2c(C)cc(C)cc2C)C1=O (stereo not drawn) [2-013] | 0 (Herbicidal ratio of 5% or lower (almost no effect)) | 2 (Herbicidal ratio of 20% or higher and lower than 40%) | 0 (Herbicidal ratio of 5% or lower (almost no effect)) | 0 (Herbicidal ratio of 5% or lower (almost no effect)) | 0 (Herbicidal ratio of 5% or lower (almost no effect)) | 0 (Herbicidal ratio of 5% or lower (almost no effect)) | 5 (Herbicidal ratio of 90% or more (almost completely withered)) | 5 (Herbicidal ratio of 90% or more (almost completely withered)) | 5 (Herbicidal ratio of 90% or more (almost completely withered)) | 0 (Herbicidal ratio of 5% or lower (almost no effect)) | 0 (Herbicidal ratio of 5% or lower (almost no effect)) | 4 (Herbicidal ratio of 70% or higher and lower than 90%) | 0 (Herbicidal ratio of 5% or lower (almost no effect)) | 0 (Herbicidal ratio of 5% or lower (almost no effect)) | 1 (Herbicidal ratio of 5% or higher and lower than 20%) |  |  |  |  |  |  |
| CON=C(C)CC1CC(OC(=O)c2c(Cl)nn(C)c2Cl)=C(c2c(C)cc(C)cc2C)C1=O (stereo not drawn) [1-160] |  | 3 (Herbicidal ratio of 40% or higher and lower than 70%) | 5 (Herbicidal ratio of 90% or more (almost completely withered)) | 4 (Herbicidal ratio of 70% or higher and lower than 90%) | 5 (Herbicidal ratio of 90% or more (almost completely withered)) |  |  | 5 (Herbicidal ratio of 90% or more (almost completely withered)) | 5 (Herbicidal ratio of 90% or more (almost completely withered)) |  |  | 4 (Herbicidal ratio of 70% or higher and lower than 90%) | 5 (Herbicidal ratio of 90% or more (almost completely withered)) |  |  | 0 (Herbicidal ratio of 5% or lower (almost no effect)) | 5 (Herbicidal ratio of 90% or more (almost completely withered)) | 5 (Herbicidal ratio of 90% or more (almost completely withered)) | 4 (Herbicidal ratio of 70% or higher and lower than 90%) | 0 (Herbicidal ratio of 5% or lower (almost no effect)) | Q: Galium spurium, herbicidal effect grade (Galium spurium; 320 g/ha): 0 (Herbicidal ratio of 5% or lower (almost no effect)); F: Digitaria ciliaris, herbicidal effect grade (Digitaria ciliaris; 320 g/ha): 5 (Herbicidal ratio of 90% or more (almost completely withered)) |
| Cc1cc(C)c(C2=C(O)CC(CC(=O)CC3CC3)C2=O)c(C)c1 (stereo not drawn) [2-026] | 0 (Herbicidal ratio of 5% or lower (almost no effect)) | 0 (Herbicidal ratio of 5% or lower (almost no effect)) | 4 (Herbicidal ratio of 70% or higher and lower than 90%) | 3 (Herbicidal ratio of 40% or higher and lower than 70%) | 0 (Herbicidal ratio of 5% or lower (almost no effect)) | 3 (Herbicidal ratio of 40% or higher and lower than 70%) | 5 (Herbicidal ratio of 90% or more (almost completely withered)) | 4 (Herbicidal ratio of 70% or higher and lower than 90%) | 5 (Herbicidal ratio of 90% or more (almost completely withered)) | 4 (Herbicidal ratio of 70% or higher and lower than 90%) | 1 (Herbicidal ratio of 5% or higher and lower than 20%) | 2 (Herbicidal ratio of 20% or higher and lower than 40%) | 0 (Herbicidal ratio of 5% or lower (almost no effect)) | 0 (Herbicidal ratio of 5% or lower (almost no effect)) | 5 (Herbicidal ratio of 90% or more (almost completely withered)) |  |  |  |  |  |  |
| CON=C(C)CC1CC(OC(=O)c2ccccc2)=C(c2c(C)cc(C)cc2C)C1=O (stereo not drawn) [1-010] |  | 4 (Herbicidal ratio of 70% or higher and lower than 90%) | 5 (Herbicidal ratio of 90% or more (almost completely withered)) | 5 (Herbicidal ratio of 90% or more (almost completely withered)) | 5 (Herbicidal ratio of 90% or more (almost completely withered)) |  |  | 5 (Herbicidal ratio of 90% or more (almost completely withered)) | 5 (Herbicidal ratio of 90% or more (almost completely withered)) |  |  | 5 (Herbicidal ratio of 90% or more (almost completely withered)) | 4 (Herbicidal ratio of 70% or higher and lower than 90%) |  |  |  |  |  |  |  | R (Veronica persica) herbicidal effect grade (Veronica persica [1]; [7]): 4 (Herbicidal ratio of 70% or higher and lower than 90%); J (Alopecurus myosuroides) herbicidal effect grade (Alopecurus myosuroides [3]; [7]): 5 (Herbicidal ratio of 90% or more (almost completely withered)); b (directly sowed rice plant) effect on crop grade (rice; [7]): 5 (Herbicidal ratio of 90% or more (almost completely withered)); g (rapeseed) effect on crop grade (rapeseed; [7]): 4 (Herbicidal ratio of 70% or higher and lower than 90%); c (corn) effect on crop grade (corn [5]; [7]): 4 (Herbicidal ratio of 70% or higher and lower than 90%); Q (Galium spurium) herbicidal effect grade (Galium spurium; [7]): 2 (Herbicidal ratio of 20% or higher and lower than 40%); F (Digitaria ciliaris) herbicidal effect grade (Digitaria ciliaris; [7]): 5 (Herbicidal ratio of 90% or more (almost completely withered)) |
| C=CCOC(=O)OC1=C(c2c(C)cc(C)cc2C)C(=O)C(CC(C)=NOC)C1 (stereo not drawn) [1-146] |  |  | 5 (Herbicidal ratio of 90% or more (almost completely withered)) | 5 (Herbicidal ratio of 90% or more (almost completely withered)) |  |  |  |  |  |  |  |  |  |  |  | 5 (Herbicidal ratio of 90% or more (almost completely withered)) | 5 (Herbicidal ratio of 90% or more (almost completely withered)) | 5 (Herbicidal ratio of 90% or more (almost completely withered)) | 5 (Herbicidal ratio of 90% or more (almost completely withered)) | 1 (Herbicidal ratio of 5% or higher and lower than 20%) | R: Veronica persica, herbicidal effect (criteria 0-5) (Veronica persica [2]): 3 (Herbicidal ratio of 40% or higher and lower than 70%); e: wheat, effect on crop (criteria 0-5) (wheat): 5 (Herbicidal ratio of 90% or more (almost completely withered)); J: Alopecurus myosuroides, herbicidal effect (criteria 0-5) (Alopecurus myosuroides [4]): 5 (Herbicidal ratio of 90% or more (almost completely withered)); K: Lolium multiflorum Lam., herbicidal effect (criteria 0-5) (Lolium multiflorum Lam.): 5 (Herbicidal ratio of 90% or more (almost completely withered)); c: corn, effect on crop (criteria 0-5) (corn [6]): 5 (Herbicidal ratio of 90% or more (almost completely withered)); f: beet, effect on crop (criteria 0-5) (beet): 4 (Herbicidal ratio of 70% or higher and lower than 90%); Q: Galium spurium, herbicidal effect grade (Galium spurium; 320 g/ha): 0 (Herbicidal ratio of 5% or lower (almost no effect)); F: Digitaria ciliaris, herbicidal effect grade (Digitaria ciliaris; 320 g/ha): 5 (Herbicidal ratio of 90% or more (almost completely withered)) |
